From PubChem BioAssay AID588646 (The Scripps Research Institute Molecular Screening Center, 2011) come the findings set out here.

Calls of active or inactive are those of the source.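 The calls were made as follows: active = phosphorylated p38 level fell or rose by at least 30% against DMSO-treated cells; inactive = change under 30% either way.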

Broadly, the inhibition is the drop in the measured response relative to a control, in per cent.

The target of this assay is Mitogen-activated protein kinase 14 (Homo sapiens) (UniProt Q16539). Description: phospho-p38 protein level change, either direction, late-stage follow-up, counter-screen for KLF5 inhibitor project, cell-based, HCT116 colorectal carcinoma, chemiluminescent western blot (AID 588646). The conditions noted are these: 24 h, at 10 µM; for inhibition: measured here: phospho-p38 inhibition percent. On the technique in general: A counterscreen serves to expose hits that act by an unwanted route or on another target.
Mitogen-activated protein kinase 14 (Homo sapiens), sequence (Q16539 whole entry, looked up): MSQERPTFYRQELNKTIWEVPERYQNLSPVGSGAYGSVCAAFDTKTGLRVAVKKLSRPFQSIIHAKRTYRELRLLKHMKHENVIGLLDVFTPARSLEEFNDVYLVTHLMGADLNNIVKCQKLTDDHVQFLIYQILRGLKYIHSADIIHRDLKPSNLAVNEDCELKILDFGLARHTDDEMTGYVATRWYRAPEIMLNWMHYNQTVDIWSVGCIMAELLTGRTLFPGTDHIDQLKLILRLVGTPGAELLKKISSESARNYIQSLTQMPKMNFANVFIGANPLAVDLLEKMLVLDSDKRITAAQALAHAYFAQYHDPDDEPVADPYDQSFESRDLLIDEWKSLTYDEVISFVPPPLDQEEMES

Take `CN(C(=O)CNC(=O)/C=C/c1cccc(Cl)c1)C1CCS(=O)(=O)CC1`: the fold change was 7.64.

Take `CN(C(=O)COC(=O)/C=C/c1cccc([N+](=O)[O-])c1)C1CCS(=O)(=O)C1` (stereo not given): the fold change is 2.03 and the inhibition is -103%.

On to `CN(C(=O)CNC(=O)/C=C/c1cccc(Cl)c1)C1CCS(=O)(=O)C1` (stereo not given), for which the fold change is -1.14 (inactive) and the inhibition was found to be 11.9%.
